pIC50: −log10 of the molar value.
Legend:
HCT-116 = assay: Cytotoxicity against human HCT-116 cells incubated for 48 hrs by SRB assay; format: functional, cell-based; conditions: HCT-116, 48 h
HT-29 = assay: Cytotoxicity against human HT-29 cells incubated for 48 hrs by SRB assay; format: functional, cell-based; conditions: HT-29, 48 h
COLO 205 = assay: Cytotoxicity against human COLO 205 cells incubated for 48 hrs by SRB assay; format: functional, cell-based; conditions: COLO 205, 48 h
[1] = Toxicity in AOM/DSS-induced orthotopic CRC BALB/c mouse model assessed as body weight loss at 20 mg/kg, ip administered every other day for 2 weeks; format: organism-based; conditions: in vivo, 336 h
[2] = Toxicity in AOM/DSS-induced orthotopic CRC BALB/c mouse model assessed as body weight loss at 40 mg/kg, iv administered once every 2 days for 2 weeks; format: organism-based; conditions: in vivo, 336 h
[3] = Biodistribution in gastrointestinal tract of BALB/c mouse at 20 mg/kg, ip measured after 4 hrs by UHPLC-MS/MS analysis; format: ADME, organism-based; conditions: in vivo
[4] = Biodistribution in colorectal tumor site of BALB/c mouse at 20 mg/kg, ip measured after 4 hrs by UHPLC-MS/MS analysis; format: ADME, organism-based, Neoplasm; conditions: in vivo
[5] = Biodistribution in heart of BALB/c mouse at 20 mg/kg, ip measured after 4 hrs by UHPLC-MS/MS analysis; format: ADME, organism-based; conditions: in vivo
[6] = Biodistribution in liver of BALB/c mouse at 20 mg/kg, ip measured after 4 hrs by UHPLC-MS/MS analysis; format: ADME, organism-based; conditions: in vivo
[7] = Biodistribution in spleen of BALB/c mouse at 20 mg/kg, ip measured after 4 hrs by UHPLC-MS/MS analysis; format: ADME, organism-based; conditions: in vivo
[8] = Biodistribution in brain of BALB/c mouse at 20 mg/kg, ip measured after 4 hrs by UHPLC-MS/MS analysis; format: ADME, organism-based; conditions: in vivo
[9] = Prodrug conversion in heart of BALB/c mouse assessed as SN38 release at 20 mg/kg, ip measured after 4 hrs by UHPLC-MS/MS analysis; format: ADME, organism-based; conditions: in vivo
[10] = Prodrug conversion in liver of BALB/c mouse assessed as SN38 release at 20 mg/kg, ip measured after 4 hrs by UHPLC-MS/MS analysis; format: ADME, organism-based; conditions: in vivo
[11] = Prodrug conversion in spleen of BALB/c mouse assessed as SN38 release at 20 mg/kg, ip measured after 4 hrs by UHPLC-MS/MS analysis; format: ADME, organism-based; conditions: in vivo
[12] = Prodrug conversion in lung of BALB/c mouse assessed as SN38 release at 20 mg/kg, ip measured after 4 hrs by UHPLC-MS/MS analysis; format: ADME, organism-based; conditions: in vivo
[13] = Prodrug conversion in kidney of BALB/c mouse assessed as SN38 release at 20 mg/kg, ip measured after 4 hrs by UHPLC-MS/MS analysis; format: ADME, organism-based; conditions: in vivo
[14] = Prodrug conversion in stomach of BALB/c mouse assessed as SN38 release at 20 mg/kg, ip measured after 4 hrs by UHPLC-MS/MS analysis; format: ADME, organism-based; conditions: in vivo
[15] = Prodrug conversion in intestine of BALB/c mouse assessed as SN38 release at 20 mg/kg, ip measured after 4 hrs by UHPLC-MS/MS analysis; format: ADME, organism-based; conditions: in vivo
[16] = Prodrug conversion in tumor of BALB/c mouse assessed as SN38 release at 20 mg/kg, ip measured after 4 hrs by UHPLC-MS/MS analysis; format: ADME, organism-based, Neoplasm; conditions: in vivo
[17] = Prodrug conversion in brain of BALB/c mouse assessed as SN38 release at 20 mg/kg, ip measured after 4 hrs by UHPLC-MS/MS analysis; format: ADME, organism-based; conditions: in vivo
[18] = Drug concentration in heart of BALB/c mouse at 40 mg/kg, iv measured after 4 hrs by UHPLC-MS/MS analysis; format: ADME, organism-based; conditions: in vivo
[19] = Drug concentration in liver of BALB/c mouse at 40 mg/kg, iv measured after 4 hrs by UHPLC-MS/MS analysis; format: ADME, organism-based; conditions: in vivo
[20] = Drug concentration in spleen of BALB/c mouse at 40 mg/kg, iv measured after 4 hrs by UHPLC-MS/MS analysis; format: ADME, organism-based; conditions: in vivo
[21] = Drug concentration in kidney of BALB/c mouse at 40 mg/kg, iv measured after 4 hrs by UHPLC-MS/MS analysis; format: ADME, organism-based; conditions: in vivo
[22] = Drug concentration in stomach of BALB/c mouse at 40 mg/kg, iv measured after 4 hrs by UHPLC-MS/MS analysis; format: ADME, organism-based; conditions: in vivo
[23] = Drug concentration in intestine of BALB/c mouse at 40 mg/kg, iv measured after 4 hrs by UHPLC-MS/MS analysis; format: ADME, organism-based; conditions: in vivo
[24] = Drug concentration in tumor of BALB/c mouse at 40 mg/kg, iv measured after 4 hrs by UHPLC-MS/MS analysis; format: ADME, organism-based, Neoplasm; conditions: in vivo
[25] = Drug concentration in brain of BALB/c mouse at 40 mg/kg, iv measured after 4 hrs by UHPLC-MS/MS analysis; format: ADME, organism-based; conditions: in vivo
[26] = Prodrug conversion in tumor of BALB/c mouse assessed as SN38 release at 40 mg/kg, iv measured after 4 hrs by UHPLC-MS/MS analysis; format: ADME, organism-based, Neoplasm; conditions: in vivo
[27] = Prodrug conversion in liver of BALB/c mouse assessed as SN38 release at 40 mg/kg, iv measured after 4 hrs by UHPLC-MS/MS analysis; format: ADME, organism-based; conditions: in vivo

Question: With `CCc1c2c(nc3ccc(OC(=O)N4CCC(N5CCCCC5)CC4)cc13)-c1cc3c(c(=O)n1C2)COC(=O)[C@]3(O)CC` [IRINOTECAN] as the molecule, how does the pIC50 (HCT-116) read?
Answer: 5.43

Question: What about the pIC50 (HT-29) of the same molecule?
Answer: 5.07

Question: And the pIC50 (COLO 205)?
Answer: 5.00

Question: What about the Activity [1] of the same molecule?
Answer: Non-Toxic

Question: And the Activity [2]?
Answer: Non-Toxic

Question: What about the Drug uptake [3] of the same molecule?
Answer: Active

Question: And the Drug uptake [4]?
Answer: Active

Question: What about the Drug uptake [5] of the same molecule?
Answer: Active

Question: What about the Drug uptake [6] of the same molecule?
Answer: Active

Question: And the Drug uptake [7]?
Answer: Active

Question: And the Drug uptake [8]?
Answer: Active

Question: What about the Drug metabolism [9] of the same molecule?
Answer: Metabolite_Detected

Question: What about the Drug metabolism [10] of the same molecule?
Answer: Metabolite_Detected

Question: And the Drug metabolism [11]?
Answer: Metabolite_Detected

Question: And the Drug metabolism [12]?
Answer: Metabolite_Detected

Question: And the Drug metabolism [13]?
Answer: Metabolite_Detected

Question: What about the Drug metabolism [14] of the same molecule?
Answer: Metabolite_Detected

Question: What about the Drug metabolism [15] of the same molecule?
Answer: Metabolite_Detected

Question: And the Drug metabolism [16]?
Answer: Metabolite_Detected

Question: And the Drug metabolism [17]?
Answer: Metabolite_Detected

Question: What about the Ct [18] of the same molecule?
Answer: Active

Question: And the Ct [19]?
Answer: Active

Question: What about the Ct [20] of the same molecule?
Answer: Active

Question: And the Ct [21]?
Answer: Active

Question: What about the Ct [22] of the same molecule?
Answer: Active

Question: And the Ct [23]?
Answer: Active

Question: What about the Ct [24] of the same molecule?
Answer: Active

Question: What about the Ct [25] of the same molecule?
Answer: Active

Question: And the Drug metabolism [26]?
Answer: Metabolite_Detected

Question: What about the Drug metabolism [27] of the same molecule?
Answer: Metabolite_Detected

From ChEMBL document CHEMBL5331135, “Design, Synthesis, and Evaluation of Glucose Transporter Inhibitor-SN38 Conjugates for Targeting Colorectal Cancer” (J Med Chem, 2023)
